Test results reported in patent US8263344B2, “Compounds regulating calreticulin, KDEL receptor and/or Erp-57 cell surface exposure and uses thereof to evaluate the efficiency of a cancer treatment” (Institut Gustave Roussy, priority 2006, dated 2012).

Columns and labels:
HCT116 colon cancer cell = experiment: Calreticulin exposure with PP1/GADD34 inhibitory peptide (flow cytometry); type: cell-based, human; settings: 2 hours
Experimental: (§1) HCT116 cells (FIG. 7A) or CT26 cells (FIG. 7B) were cultured in complete mediums supplemented with 10% fetal calf serum alone or in the presence of the control peptide (VKKKKIKREIKI-lkaravafsekv) or the PP1/GADD34 inhibitory peptide (VKKKKIKREIKI-lkarkvrfsekv, denominated PP1 peptide) for 2 hours. Cells were washed twice with PBS and fixed in PFA (4% w/v) for 5 min. Cells were stained with an antibody against calreticulin (pAb from Abcam, ab2907) at 1:200 dilution or isotype control, in staining buffer (PBS, 1% FCS) for 30 min on ice, followed by washing. An anti-rabbit Alexa fluor 488 immunoglobulin conjugate (Molecular Probes-Invitrogen) diluted at 1:500 was added for an additional 30 min on ice before washing and analysed by flow cytometry (FACScan, Becton Dickinson). Propidium Iodide (50 μg/ml, Becton Dickinson) was added to the samples to label and exclude permeabilized (dead) cells.

CT26 colon cancer cells = experiment: as above; type: cell-based, murine; settings: 2 hours
Experimental: as §1

CT26 tumour cells = experiment: Anti-tumour vaccination with treated (dying) CT26 cells and challenge with live tumour cells; type: in vivo, BALB/c mice; settings: mouse, in vivo
CT26 cells [1] = experiment: Fluorescence detection of cell surface CRT; type: cell-based, murine
Experimental: CT26 cells were cultured at 37° C. under 5% CO2 in RPMI 1640 medium supplemented with 10% FCS, penicillin, streptomycin, 1 mM pyruvate and 10 mM HEPES in the presence of doxorubicin (DX; 24 h, 25 μM), mitoxantrone (Mitox; 24 h, 1 μM, Sigma), idarubicin (24 h, 1 μM, Aventis, France), mitomycin C (30 μM, 48 h; Sanofi-Synthelabo, France), and/or zVAD-fmk (50 μM, 24 h; Bachem), tunicamycin (24 h, 65 μM), thapsigargin (24 h, 30 μM), brefeldin A (24 h, 50 μM, Sigma), etoposide (48 h, 25 μM, Tava classics), MG132 (48 h, 10 μM), ALLN (48 h, […]), betulinic acid (24 h, 10 μM), Hoechst 33343 (24 h, 0.2 μM), camptothecine (24 h, 15 μM), lactacystin (48 h, 60 μM), BAY 11-8072 (24 h, 30 μM), staurosporine (24 h, 1.5 μM), bafilomycin A1 (48 h, 300 nM), arsenic trioxide (24 h, 30 μM), C2-ceramide (C2-C; 24 h, 60 μM), calyculin A (48 h, 30 nM), or tautomycin (48 h, […], Sigma) and/or salubrinal (48 h, […], Calbiochem).
CT26 cells (on a glass slide or in 12-well plates) were first washed with FACS buffer (1×PBS, 5% fetus bovine serum, and 0.1% sodium azide) and then incubated with rabbit anti-mouse CRT antibody (1:100, Stressgen) in FACS buffer at 4° C. for 30 min. Cells reacted with anti-rabbit IgG (H+L) Alexa fluor 488-conjugates (1:500) in FACS buffer at 4° C. for 30 min. After washing three times with FACS buffer, surface CRT was detected by cytofluorometric analysis on a FACS Vantage. In some experiments, cells were fixed with 4% paraformaldehyde, counterstained with Hoechst (2 μM; Sigma), followed by fluorescence microscopic assessment with a Leica IRE2 microscope equipped with a DC300F camera.

CT26 tumours [2] = experiment: Single intratumoural injection into established CT26 tumours, immunocompetent mice; type: in vivo, BALB/c mice; settings: for therapeutic effect of intratumoural injection, single agent, immunocompetent mice: established 14-day-old CT26 tumours; for therapeutic effect combined with a cell death inducer (etoposide or mitomycin C), immunocompetent mice: intratumoural
CT26 tumours [3] = experiment: Single intratumoural injection into established CT26 tumours, athymic mice; parameters: species or system nu/nu Balb/c mice; settings: mouse, in vivo
MCA205, B16F10, J558 = experiment: CRT exposure on a panel of murine tumour cell lines; type: cell-based
HeLa, A549, HCT116 = experiment: CRT exposure on a panel of human tumour cell lines; type: cell-based
CT26 cells [4] = experiment: Phagocytosis of tumour cells by dendritic cells (DC); type: cell-based, BALB/c mice
Experimental: BM cells were flushed from the tibias and femurs of BALB/c mice with culture medium composed of RPMI 1640 medium (Invitrogen Life Technologies) supplemented with 10% heat-inactivated FBS (Invitrogen), sodium pyruvate, 50 μM 2-ME (Sigma), 10 mM HEPES (pH 7.4), and penicillin/streptomycin (Invitrogen). After one centrifugation, BM cells were resuspended in Tris-ammonium chloride for 2 min to lyse RBC. After one more centrifugation, BM cells (1×10^6 cells/ml) were cultured in medium supplemented with 100 ng/ml recombinant mouse FLT3 ligand (R&D systems) in 6-well plates (Costar Corning). After 7 days, the non-adherent and loosely adherent cells were harvested with Versene, washed and transferred in 12-well plates (1.5×10^6 cells/plate) for cocultures with tumour cells.
In 12-well plates, […] adherent CT26 cells were labelled with Celltracker Green (Calbiochem) and then incubated with drugs. In some experiments viable CT26 were coated with 2 μg/10^6 cells of chicken anti-CRT antibody (ABR affinity bioreagents) or an isotype control for 30 min prior to washing and feeding to dendritic cells Cs. Alternatively CT26 cells were coated with 2 μg/10^6 cells of rCRT on ice for 30 min and washed twice prior to addition to dendritic cells. Cells were then harvested, washed three times with medium supplemented with FBS and cocultured with immature DC for 2 hours at a ratio of 1:1 and 1:5. At the end of the incubation, cells were harvested with versene, pooled with non-adherent cells present in the supernatant, washed and stained with CD11c-FITC antibody. Phagocytosis was assessed by FACS analysis of double positive cells. Phagocytic indexes refer to the ratio between values obtained at 4° C. and values obtained at 37° C. of co-incubation between DC and tumour cells.

CT26 cells [5] = experiment: Local immune response: footpad injection, IFN-γ secretion by draining lymph node cells; type: in vivo, Balb/c mice; settings: foot pad injection
Experimental: FIG. 4C: Exogenous supply of CRT enhances the immunogenicity of CRT-negative dying cells. CT26 cells lacking CRT expression after depletion of CRT with a siRNA and mitoxantrone treatment or after mitomycin treatment were coated with rCRT (inserts) and then injected in the food pad, followed by assessment of the IFN-γsecretion by cells from the draining lymph nodes as in FIG. 4B.
Tumours were evaluated weekly, using a caliper.

DC = DC maturation ex vivo; type: cell-based; settings: rCRT alone, over a large range of concentrations

VKKKKIKREIKI-LKARKVRFSEKV (VKKKKIKREIKILKARKVRFSEKV) [peptide comprising SEQ ID NO:4, fragment of GADD34 fused to a DPT-sh1 translocation motif]
exposure of calreticulin, HCT116 (HCT116 colon cancer cell): capable of inducing the exposure of calreticulin | exposure of calreticulin, CT26 (CT26 colon cancer cells): capable of inducing the exposure of calreticulin

O=C(/C=C/c1ccccc1)NC(NC(=S)Nc1cccc2cccnc12)C(Cl)(Cl)Cl (stereo not drawn) [salubrinal]
immunogenic cell death by PP1/GADD34 inhibition alone (CT26 tumour cells): not sufficient to induce immunogenic cell death | CRT exposure at the cell surface (CT26 cells [1]): efficiently induced | therapeutic effect of intratumoural injection, single agent, immunocompetent mice (CT26 tumours [2]): no major therapeutic effect | therapeutic effect combined with a cell death inducer (etoposide or mitomycin C), immunocompetent mice (CT26 tumours [2]): stable disease or complete tumour regression | therapeutic effect of intratumoural injection, single agent, nu/nu mice (CT26 tumours [3]): no major therapeutic effect | CRT exposure, murine tumour cell lines (MCA205, B16F10, J558): induced CRT exposure | CRT exposure, human tumour cell lines (HeLa, A549, HCT116): induced CRT exposure

VKKKKIKREIKI-lkaravafsekv [mutant control peptide]
exposure of calreticulin, HCT116 (HCT116 colon cancer cell): did not induce calreticulin exposure | exposure of calreticulin, CT26 (CT26 colon cancer cells): did not induce calreticulin exposure

B1: rCRT: recombinant CRT protein (rCRT), which binds to the surface of the cells (protein, UniProt P27797 18-417, looked up)
Calreticulin: EPAVYFKEQFLDGDGWTSRWIESKHKSDFGKFVLSSGKFYGDEEKDKGLQTSQDARFYALSASFEPFSNKGQTLVVQFTVKHEQNIDCGGGYVKLFPNSLDQTDMHGDSEYNIMFGPDICGPGTKKVHVIFNYKGKNVLINKDIRCKDDEFTHLYTLIVRPDNTYEVKIDNSQVESGSLEDDWDFLPPKKIKDPDASKPEDWDERAKIDDPTDSKPEDWDKPEHIPDPDAKKPEDWDEEMDGEWEPPVIQNPEYKGEWKPRQIDNPDYKGTWIHPEIDNPEYSPDPSIYAYDNFGVLGLDLWQVKSGTIFDNFLITNDEAYAEEFGNETWGVTKAAEKQMKDKQDEEQRLKEEEEDKKRKEEEEAEDKEDDEDKDEDEEDEEDKEEDEEEDVPGQAKDEL
anti-cancer immune response to rCRT-coated cells without prior treatment with cell death inducers (CT26 tumour cells): failed to elicit an anti-cancer immune response | anti-tumour immune response to etoposide-treated cells coated with rCRT (CT26 tumour cells): elicited a vigorous anti-tumour immune response | immunogenicity of mitoxantrone-treated CT26 cells with CRT knock-down, complemented with rCRT (CT26 tumour cells): restored | phagocytosis by DC and CRT expression after CRT-specific siRNA, with addition of rCRT (CT26 cells [4]): could reverse the defect | effect of rCRT injected into a distant site on intratumourally injected etoposide (CT26 tumours [2]; contralateral subcutaneous injection): did not ameliorate the antitumoural effects | therapeutic effect of intratumoural injection, single agent, immunocompetent mice (CT26 tumours [2]): no major therapeutic effect | therapeutic effect combined with a cell death inducer (etoposide or mitomycin C), immunocompetent mice (CT26 tumours [2]): able to cause tumour regression | therapeutic effect of intratumoural injection, single agent, nu/nu mice (CT26 tumours [3]): no major therapeutic effect | immunogenicity (interferon production by T cells from popliteal lymph node) of mitomycin-treated cells coated with rCRT (CT26 cells [5]): greatly enhanced the immunogenicity | DC maturation (DC): could not promote DC maturation
